According to patent US20240018136A1, “CDK Inhibitors And Their Use As Pharmaceuticals” (Prelude Therapeutics, Incorporated, priority 2022, published 2024):

Assays:
[1] = molecular target: CDK2/Cyclin E2 (Homo sapiens, UniProt P24941); assay: CDK2/CyclinE2 enzymatic activity assay (TR-FRET); type: biochemical; conditions: ATP 1 mM final, read-out: CDK2_E1 IC50
Protocol: CDK2/CyclinE2 Enzymatic Activity Assay
(§1) The inhibitory activity of compounds was evaluated in vitro using TR-FRET assay with white 384-well low volume microplate (Greiner Bio-One). CDK2/Cyclin E2 catalyzed phosphorylation of peptide in the presence and absence of compounds was measured and used in IC50 determination. Recombinant protein complex CDK2/Cyclin E2, expressed from insect cell, was purchased from ProQinase. Testing compounds were dissolved in DMSO at 1 mM and tested in 9-dose IC50 mode. The reaction mixture was prepared by mixing CDK2/CyclinE2 (1 nM final), ULight-4E-BP1 (50 nM final, Perkinelmer, TRF0128-D), and ATP (1 mM final) in assay buffer (20 mM of HEPES pH 7.4, 1 mM of EGTA, 0.05% BSA, 0.005% Tween 20, and 1 mM TCEP). The compound of interest in DMSO was added to each well in 3-fold serial dilution by dispenser (TECAN D300E) to make a 9.9 μL of reaction mixture. After 20 minutes preincubation at room temperature, 0.1 μL MgCl2 (10 mM final) was added to initiate the reaction. Following a 45 minute incubation at 37° C., the reaction was stopped by addition of 2 μL of quenching buffer consisting of Lance detection buffer (Perkinelmer CR97-100C), LANCE Ultra Europium-anti-P-4E-BP1 (Perkinelmer, TRF0216-D), EDTA, and incubate at room temperature for an additional 60 minutes in the dark. The reaction signal was measured by Envision multimode plate reader (PerkinElmer, 2102-0010). IC50 values were determined by fitting the data to the standard 4 parameters with Hill Slope using GraphPad Prism software.

[2] = system: OVCAR3 p-RB; assay: pRB ICW assay in OVCAR3 cells; type: cell-based; conditions: Homo sapiens, OVCAR-3, incubated with compound for 2 hours
Protocol: pRB ICW Assay in OVCAR3 Cells
OVCAR3 cells were maintained in RPMI (Corning, Catalog #: 10-040-CV) supplemented with 10% v/v FBS (Gibco, Catalog #: 26140-079), 1% v/v Penicillin Streptomycin (Gibco, Catalog #15140-122.) OVCAR3 cells grown at log phase were trypsinized, counted, and resuspended in fresh medium to reach a final density of 6.7e4 cells/mL and 75 μL of culture were dispensed into a 384-well plate (Falcon, cat #353962) using Multidrop Combi dispenser (Thermo Scientific). The next day, compounds were dispensed as a 9-point, ½ log serial dilution using a Tecan digital dispenser (D300e), and cells were incubated with compound for 2 hours in a humidified incubator at 37° C. A reference compound at a final concentration of 10 μM was used as a control for maximum inhibition. Each compound was tested in duplicates in each experiment. At the end of the incubation, 25 μL of 16% paraformaldehyde (Electron Microscopy, cat #15710) was slowly added to each well and the plate was incubated at room temperature (RT) for 30 minutes to fix cells. Cells were then permeabilized by incubating with 50 μL/well of wash buffer (lx PBS with 0.1% Triton X-100) 5×5 minutes, followed by 1 hour blocking with 30 μL/well of Odyssey blocking buffer (Li-COR, cat #927-40000), all at RT. Anti-phosphor RB antibody (Cell signaling 8516S) was diluted 1:1000 in Odyssey blocking buffer and 20 μL was added to all wells and incubated overnight in 4° C. with gently rocking. The next day, cells were washed 5×5 min with 50 μL/well of wash buffer, followed with 1 hour incubation with secondary antibody and DRAQ5 diluted in Odyssey blocking buffer (1:500 dilution for secondary antibody and 1:2000 dilution for DRAQ5), 5×5 min washes, and one last wash with water. Plates were dried in 37° C. oven for 5 min and scanned using Li-COR Odyssey CLx imaging system to acquire intensities at 700 and 800 nm channels.

[3] = molecular target: T1, CDK4/Cyclin D1 (Homo sapiens, UniProt P11802); assay: CDK4/CyclinD1 enzymatic activity assay (TR-FRET); type: biochemical; conditions: ATP 2 mM final, read-out: CDK4_D1 IC50
T1 construct: purchased ProQinase; host or cells: insect cell
T1 sequence (P11802 whole entry): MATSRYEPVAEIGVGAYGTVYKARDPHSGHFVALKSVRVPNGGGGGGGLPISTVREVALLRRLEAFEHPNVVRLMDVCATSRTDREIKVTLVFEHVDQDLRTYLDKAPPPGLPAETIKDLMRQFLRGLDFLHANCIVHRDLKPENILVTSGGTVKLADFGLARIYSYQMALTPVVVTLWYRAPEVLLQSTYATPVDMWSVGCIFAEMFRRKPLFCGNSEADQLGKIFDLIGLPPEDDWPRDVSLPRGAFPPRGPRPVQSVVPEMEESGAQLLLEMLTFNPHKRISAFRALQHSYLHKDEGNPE
T1 sequence (P24385 whole entry partner): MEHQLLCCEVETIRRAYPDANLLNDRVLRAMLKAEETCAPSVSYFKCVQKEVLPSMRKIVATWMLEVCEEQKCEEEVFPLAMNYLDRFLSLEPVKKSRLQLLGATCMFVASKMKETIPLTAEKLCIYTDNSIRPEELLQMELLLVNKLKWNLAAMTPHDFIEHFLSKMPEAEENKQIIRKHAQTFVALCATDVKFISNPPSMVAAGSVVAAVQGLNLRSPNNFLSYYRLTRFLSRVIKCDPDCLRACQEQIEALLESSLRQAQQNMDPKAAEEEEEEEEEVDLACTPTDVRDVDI
Protocol: CDK4/CyclinD1 Enzymatic Activity Assay
as §1, with “Bio-One). CDK4/Cyclin D1” for “Bio-One). CDK2/Cyclin E2”, “in IC5” for “in IC50”, “complex CDK4/Cyclin D1,” for “complex CDK2/Cyclin E2,”, “mixing CDK4/CyclinD1” for “mixing CDK2/CyclinE2”, “ULight-4E-BP1 (100” for “ULight-4E-BP1 (50”, “ATP (2” for “ATP (1”

| Compound | IC50 [1] [nM] | IC50 [2] [nM] | IC50 [3] [nM] |
| --- | --- | --- | --- |
| CC(O)c1ncc(-c2nc(NC3CCN(S(=O)(=O)c4cnn(C)c4)CC3)ncc2C(F)(F)F)s1 (stereo not drawn) [Example 82, 1-(5-(2-((1-((1-methyl-1H-pyrazol-4-yl)sulfonyl)piperidin-4-yl)amino)-5-(trifluoromethyl)pyrimidin-4-yl)thiazol-2-yl)ethan-1-ol] | ≤ 100 | ≤ 100 | ≤ 100 |
| CC(C)(O)Cc1ncc(-c2nc(NC3CCN(S(C)(=O)=O)CC3)ncc2C(F)(F)F)s1 [Example 68, 2-methyl-1-(5-(2-((1-(methylsulfonyl)piperidin-4-yl)amino)-5-(trifluoromethyl)pyrimidin-4-yl)thiazol-2-yl) propan-2-ol] | ≤ 100 | ≤ 100 | ≤ 100 |
| CS(=O)(=O)N1CCC(Nc2ncc(C(F)(F)F)c(-c3cnc(NC4CC4)s3)n2)CC1 [Example 36, N-Cyclopropyl-5-[2-[(1-methylsulfonylpiperidin-4-yl)amino]-5-(trifluoromethyl)pyrimidin-4-yl]-1,3-thiazol-2-amine] | ≤ 100 | 100 to 1000 | ≤ 100 |
| Cc1nc(CO)ccc1-c1ncc(-c2nc(NC3CCN(S(C)(=O)=O)CC3)ncc2C(F)(F)F)s1 [Example 10, [6-Methyl-5-[5-[2-[(1-methylsulfonylpiperidin-4-yl)amino]-5-(trifluoromethyl)pyrimidin-4-yl]-1,3-thiazol-2-yl]pyridin-2-yl]methanol] | ≤ 100 | > 1000 | ≤ 100 |
| CC(C)Oc1ncc(-c2nc(NC3CCN(S(C)(=O)=O)CC3)ncc2C(F)(F)F)s1 [Example 25, N-(1-Methylsulfonylpiperidin-4-yl)-4-(2-propan-2-yloxy-1,3-thiazol-5-yl)-5-(trifluoromethyl)pyrimidin-2-amine] | ≤ 100 | 100 to 1000 | ≤ 100 |
| CCS(=O)(=O)N1CCC(Nc2ncc(C(F)(F)F)c(-c3cnc(C)s3)n2)CC1 [Example 45, N-(1-(Ethylsulfonyl)piperidin-4-yl)-4-(2-methylthiazol-5-yl)-5-(trifluoromethyl)pyrimidin-2-amine] | ≤ 100 | 100 to 1000 | 100 to 1000 |
| CC(O)c1ncc(-c2nc(N[C@@H]3CCN(S(=O)(=O)c4cnn(C)c4)C[C@H]3F)ncc2C(F)(F)F)s1 (stereo partly drawn) [Example 99, 1-(5-(2-(((3R,4R)-3-fluoro-1-((1-methyl-1H-pyrazol-4-yl)sulfonyl)piperidin-4-yl)amino)-5-(trifluoromethyl)pyrimidin-4-yl)thiazol-2-yl)ethan-1-ol] | ≤ 100 | 100 to 1000 | ≤ 100 |
| CC(O)c1ncc(-c2nc(NC3CCN(S(C)(=O)=O)CC3)ncc2C(F)(F)F)s1 (stereo not drawn) [Example 81, 1-(5-(2-((1-(methylsulfonyl)piperidin-4-yl)amino)-5-(trifluoromethyl)pyrimidin-4-yl)thiazol-2-yl)ethan-1-ol] | ≤ 100 | 100 to 1000 | ≤ 100 |
| CC(C)(O)Cc1ncc(-c2nc(N[C@H]3CCN(S(C)(=O)=O)C[C@H]3F)ncc2C(F)(F)F)s1 [Example 69, 1-(5-(2-(((3R,4S)-3-fluoro-1-(methylsulfonyl)piperidin-4-yl)amino)-5-(trifluoromethyl)pyrimidin-4-yl)thiazol-2-yl)-2-methylpropan-2-ol] | ≤ 100 | ≤ 100 | ≤ 100 |
| CS(=O)(=O)N1CCC(Nc2ncc(C(F)(F)F)c(-c3cnc(N)s3)n2)CC1 [Example 20, 5-(2-((1-(methylsulfonyl)piperidin-4-yl)amino)-5-(trifluoromethyl)pyrimidin-4-yl)thiazol-2-amine] | ≤ 100 | 100 to 1000 | ≤ 100 |
| CC(O)c1ncc(-c2nc(N[C@H]3CCN(S(=O)(=O)c4cnn(C)c4)C[C@H]3C)ncc2C(F)(F)F)s1 (stereo partly drawn) [Example 102, 1-(5-(2-(((3R,4S)-3-methyl-1-((1-methyl-1H-pyrazol-4-yl)sulfonyl)piperidin-4-yl)amino)-5-(trifluoromethyl)pyrimidin-4-yl)thiazol-2-yl)ethan-1-ol] | ≤ 100 | 100 to 1000 | 100 to 1000 |
| Cc1ccc(-c2ncc(-c3nc(NC4CCN(S(C)(=O)=O)CC4)ncc3C(F)(F)F)s2)c(C)c1 [Example 11, 4-[2-(2,4-dimethylphenyl)-1,3-thiazol-5-yl]-N-(1-methylsulfonyl-piperidin-4-yl)-5-(trifluoromethyl)pyrimidin-2-amine] | ≤ 100 | > 1000 | 100 to 1000 |
| CC(O)c1ncc(-c2nc(NC3CCN(S(=O)(=O)c4cnn(CC(N)=O)c4)CC3)ncc2C(F)(F)F)s1 (stereo not drawn) [Example 87, 2-(4-((4-((4-(2-(1-hydroxyethyl)thiazol-5-yl)-5-(trifluoromethyl)pyrimidin-2-yl)amino)piperidin-1-yl)sulfonyl)-1H-pyrazol-1-yl)acetamide] | ≤ 100 | 100 to 1000 | ≤ 100 |
| CC(O)c1ncc(-c2nc(NC3CCN(S(=O)(=O)c4cn(C)cn4)CC3)ncc2C(F)(F)F)s1 (stereo not drawn) [Example 83, 1-(5-(2-((1-((1-methyl-1H-imidazol-4-yl)sulfonyl)piperidin-4-yl)amino)-5-(trifluoromethyl)pyrimidin-4-yl)thiazol-2-yl)ethan-1-ol] | ≤ 100 | ≤ 100 | ≤ 100 |
| Cn1cc(S(=O)(=O)N2CCC(Nc3ncc(C(F)(F)F)c(-c4cnc(C5(O)CCCC5)s4)n3)CC2)cn1 [Example 95, 1-(5-(2-((1-((1-methyl-1H-pyrazol-4-yl)sulfonyl)piperidin-4-yl)amino)-5-(trifluoromethyl)pyrimidin-4-yl)thiazol-2-yl)cyclopentan-1-ol] | ≤ 100 | ≤ 100 | ≤ 100 |
| CC(C)(O)Cc1ncc(-c2nc(NC3CCN(S(=O)(=O)c4cnn(CC#N)c4)CC3)ncc2C(F)(F)F)s1 [Example 77] | ≤ 100 | ≤ 100 | ≤ 100 |
| CN(CCO)c1ncc(-c2nc(NC3CCN(S(C)(=O)=O)CC3)ncc2C(F)(F)F)s1 [Example 35, 2-(methyl(5-(2-((1-(methylsulfonyl)piperidin-4-yl)amino)-5-(trifluoromethyl)pyrimidin-4-yl)thiazol-2-yl)amino)ethan-1-ol] | ≤ 100 | 100 to 1000 | ≤ 100 |
